Legend:
Test in all cases: relative viability (nuclei count vs DMSO), 5 days (fraction); higher = more cells survive
XMD13-2 + Lapatinib = compound: C1CC1C(=O)NC2=NNC3=C2C=CC(=C3)C4=CC(=CC=C4)C(=O)NC5CC5 [XMD13-2] + CS(=O)(=O)CCNCc1ccc(-c2ccc3ncnc(Nc4ccc(OCc5cccc(F)c5)c(Cl)c4)c3c2)o1 [Lapatinib] (partner 2 µM)
Outline: (§1)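 Lung cancer cell lines were seeded in 1536-well plates and dosed by pin tool the next day, with either a single drug or a fixed anchor-drug dose combined with five library-drug doses (not always all listed) spaced in √10 steps. Five days later, one step fixed the cells and stained their nuclei (final 0.05% Triton X-100, 1% formaldehyde, 1 ug/ml Hoechst), and nuclei were counted on 4× images. Relative viability is the nuclei count in treated wells divided by the count in vehicle wells, and each value is the median of duplicate plates.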

XMD13-2 + Vorinostat = compound: C1CC1C(=O)NC2=NNC3=C2C=CC(=C3)C4=CC(=CC=C4)C(=O)NC5CC5 [XMD13-2] + O=C(CCCCCCC(=O)Nc1ccccc1)NO [Vorinostat] (partner 1 µM)
Outline: as §1

ALW-II-49-7 + Vorinostat = compound: Cc1ccc(C(=O)Nc2cccc(C(F)(F)F)c2)cc1Nc1cncc(C(N)=O)c1 [ALW-II-49-7] + O=C(CCCCCCC(=O)Nc1ccccc1)NO [Vorinostat] (partner 1 µM)
Outline: as §1

Dasatinib + Linsitinib = compound: Cc1nc(Nc2ncc(C(=O)Nc3c(C)cccc3Cl)s2)cc(N2CCN(CCO)CC2)n1 [Dasatinib] + C[C@]1(O)C[C@@H](c2nc(-c3ccc4ccc(-c5ccccc5)nc4c3)c3c(N)nccn32)C1 [Linsitinib] (partner 1 µM)
Outline: as §1

Row | Cell Line | relative viability (XMD13-2 + Lapatinib; first compound 0.05 µM) | relative viability (XMD13-2 + Lapatinib; first compound 0.1581 µM) | relative viability (XMD13-2 + Lapatinib; first compound 0.5 µM) | relative viability (XMD13-2 + Lapatinib; first compound 1.581 µM) | relative viability (XMD13-2 + Lapatinib; first compound 5 µM) | relative viability (XMD13-2 + Vorinostat; first compound 0.05 µM) | relative viability (XMD13-2 + Vorinostat; first compound 0.1581 µM) | relative viability (XMD13-2 + Vorinostat; first compound 0.5 µM) | relative viability (XMD13-2 + Vorinostat; first compound 1.581 µM) | relative viability (XMD13-2 + Vorinostat; first compound 5 µM) | relative viability (ALW-II-49-7 + Vorinostat; first compound 0.08 µM) | relative viability (ALW-II-49-7 + Vorinostat; first compound 0.253 µM) | relative viability (ALW-II-49-7 + Vorinostat; first compound 0.8 µM) | relative viability (ALW-II-49-7 + Vorinostat; first compound 2.53 µM) | relative viability (ALW-II-49-7 + Vorinostat; first compound 8 µM) | relative viability (Dasatinib + Linsitinib; first compound 0.005 µM) | relative viability (Dasatinib + Linsitinib; first compound 0.01581 µM) | relative viability (Dasatinib + Linsitinib; first compound 0.05 µM) | relative viability (Dasatinib + Linsitinib; first compound 0.1581 µM) | relative viability (Dasatinib + Linsitinib; first compound 0.5 µM)
1 | HCC-15 | 0.983 | 0.761 | 0.918 | 0.801 | 0.519 | 0.971 | 0.862 | 0.957 | 0.764 | 0.823 | 0.913 | 0.807 | 0.916 | 0.802 | 0.893 | 0.862 | 0.773 | 0.766 | 0.599 | 0.555
2 | SK-LU-1 | 1.14 | 0.97 | 0.971 | 0.707 | 0.536 | 0.874 | 0.831 | 0.959 | 0.719 | 0.74 | 0.754 | 0.64 | 0.551 | 0.628 | 0.493 | 0.636 | 0.445 | 0.435 | 0.261 | 0.242
3 | NCI-H2023 | 0.932 | 0.739 | 0.835 | 0.724 | 0.3 | 0.837 | 0.668 | 0.696 | 0.731 | 0.94 | 0.683 | 0.688 | 0.434 | 0.64 | 0.625 | 0.439 | 0.384 | 0.426 | 0.329 | 0.188
4 | HCC-366 | 1.3 | 1.04 | 1.07 | 1.09 | 1.12 | 0.439 | 0.291 | 0.386 | 0.379 | 0.399 | 0.49 | 0.363 | 0.258 | 0.343 | 0.21 | 0.122 | 0.0525 | 0.067 | 0.0321 | 0.04
5 | NCI-H1355 | 1.13 | 0.942 | 1.05 | 0.997 | 1.06 | 0.704 | 0.601 | 0.694 | 0.624 | 0.638 | 0.63 | 0.618 | 0.615 | 0.591 | 0.597 | 0.686 | 0.597 | 0.667 | 0.428 | 0.369
6 | SW 1573 | 1.13 | 1.2 | 1.28 | 1.06 | 1.1 | 0.786 | 0.625 | 0.853 | 0.844 | 0.385 | 0.612 | 0.663 | 0.652 | 0.648 | 0.567 | 0.747 | 0.648 | 0.6 | 0.425 | 0.435
7 | NCI-H661 | 0.423 | 0.555 | 0.578 | 0.519 | 0.386 | 0.811 | 0.75 | 0.75 | 0.825 | 0.563 | 0.854 | 0.859 | 0.823 | 0.795 | 0.79 | 0.43 | 0.329 | 0.31 | 0.236 | 0.215
8 | LU99A | 1.21 | 0.975 | 1.02 | 0.858 | 0.42 | 0.536 | 0.43 | 0.522 | 0.561 | 0.468 |  | 0.525 | 0.507 | 0.5 | 0.619 | 0.494 | 0.481 | 0.434 | 0.199 | 0.173
9 | LCLC-97TM1 | 1.19 | 0.693 | 1.23 | 0.75 | 0.825 | 0.769 | 0.551 | 0.747 | 0.532 | 0.301 | 0.96 | 0.683 | 0.642 | 0.685 | 0.49 | 0.17 | 0.203 | 0.2 | 0.163 | 0.129
10 | LC-2-ad | 1.01 | 1.06 | 0.971 | 0.885 | 0.855 | 0.721 | 0.703 | 0.717 | 0.696 | 0.722 | 0.681 | 0.763 | 0.691 | 0.698 | 0.528 | 0.685 | 0.702 | 0.6 | 0.26 | 0.176
11 | NCI-H1395 | 1.56 | 0.997 | 1.08 | 0.908 | 0.945 | 0.732 | 0.871 | 0.651 | 0.594 | 0.707 | 0.649 | 0.699 | 0.733 |  | 0.569 | 1.24 | 1.05 | 0.887 | 0.451 | 0.343
12 | NCI-H2228 | 1.42 | 1.19 | 1.05 | 1.23 | 0.426 | 0.642 | 0.573 | 0.507 | 0.76 | 0.752 | 0.534 | 0.414 | 0.513 | 0.674 | 0.49 | 0.629 | 0.593 | 0.649 | 0.326 | 0.215
13 | NCI-H1944 | 1.01 | 0.726 | 0.95 | 1.06 | 0.746 | 0.632 | 0.53 | 0.607 | 0.808 | 0.628 | 0.659 | 0.613 | 0.497 | 0.478 | 0.377 | 1.15 | 1.34 | 0.787 | 0.419 | 0.276
14 | HOP-62 | 1.17 | 1.02 | 1.09 | 1.25 | 1.07 | 0.612 | 0.587 | 0.658 | 0.694 | 0.537 | 0.547 | 0.696 | 0.588 | 0.523 | 0.298 | 1.07 | 1.07 | 0.85 | 0.682 | 0.297
15 | NCI-H2347 | 0.987 | 0.93 | 0.912 | 1.04 | 0.973 | 0.565 | 0.619 | 0.765 | 0.562 | 0.661 | 0.519 | 0.5 | 0.653 | 0.49 | 0.559 | 1.01 | 0.935 | 0.943 | 0.402 | 0.159
16 | NCI-H2087 | 1.06 | 1.48 | 1.01 | 1.23 | 0.737 | 0.686 | 0.902 | 0.729 | 0.898 | 0.853 | 0.687 | 0.597 | 0.662 | 0.508 | 0.38 | 0.929 | 0.772 | 1.04 | 0.862 | 0.469

Reference: the supplement of paper PMC10307832
